What is called melting point is the temperature, or range, at which the solid turns liquid.

The molecule `CN1C2CCC1CN(C(=O)c1ccc(-c3cccc(C(F)(F)F)c3)o1)C2.O=C(O)/C=C/C(=O)O` yielded a melting point of 108.7 to 109.4 °C. For `CN1C2CCC1CN(C(=O)c1cc3ccccc3o1)C2.O=C(O)/C=C/C(=O)O` the value was 150 to 155 °C.

The molecule `CN1C2CCC1CN(C(=O)c1ccc(-c3ccccc3)cc1)C2.O=C(O)/C=C/C(=O)O` gave a melting point of 197 to 207 °C. In turn, `CC(=O)Nc1cccc(-c2ccc(C(=O)N3CC4CCC(C3)N4C)o2)c1.O=C(O)/C=C/C(=O)O` gave a melting point of 189 to 193 °C.
